Laboratory results taken from paper PMC4992173, “Divergent synthesis and identification of the cellular targets of deoxyelephantopins” (Nature Communications, 2016).

Molecular target: T1, wt PPARG (Homo sapiens, UniProt P37231)
T1 construct: host or cells: 293T
Assay: Gel-based competitive IC50 determination in 293T lysates: WT PPARγ
Assay type: binding
Conditions: wt PPARG expressed in 293T cells, lysate, 1 h, then 10 μM 24c-Cy3
Excerpt: Finally, we sought to understand the molecular basis for PPARγ binding by the synthetic analogues of deoxyelephantopin through identification of the precise covalently modified amino acid site. There is literature precedent for oxidized fatty acids containing an α,β-unsaturated ketone to form a covalent bond with a cysteine in the ligand-binding site of PPARγ[53]. More recently, synthetic ligands binding reversibly to a distinct site were identified. […] Bearing in mind that the structurally simplified, and thus less prone to MS/MS fragmentation, probe 23c binds PPARγ as efficiently as 24c (Supplementary Fig. 13), we treated the recombinant nuclear receptor with the former compound, digested the protein and analysed the resulting peptides by LC–MS/MS. […]
Supplementary figure 21: Top: Fluorescence gels corresponding to the IC50 curves presented in the main text Figure 8b. γ fluorescence signal in percentage after 19a treatment. […]
Biological materials. […] Protein concentration was determined using the Bradford assay (Bio-Rad).
Cell culture and preparation of lysates. […] Cells were lysed by sonication to form cell lysates and protein concentration was determined using the Bradford […]

T1 sequence (P37231 whole entry): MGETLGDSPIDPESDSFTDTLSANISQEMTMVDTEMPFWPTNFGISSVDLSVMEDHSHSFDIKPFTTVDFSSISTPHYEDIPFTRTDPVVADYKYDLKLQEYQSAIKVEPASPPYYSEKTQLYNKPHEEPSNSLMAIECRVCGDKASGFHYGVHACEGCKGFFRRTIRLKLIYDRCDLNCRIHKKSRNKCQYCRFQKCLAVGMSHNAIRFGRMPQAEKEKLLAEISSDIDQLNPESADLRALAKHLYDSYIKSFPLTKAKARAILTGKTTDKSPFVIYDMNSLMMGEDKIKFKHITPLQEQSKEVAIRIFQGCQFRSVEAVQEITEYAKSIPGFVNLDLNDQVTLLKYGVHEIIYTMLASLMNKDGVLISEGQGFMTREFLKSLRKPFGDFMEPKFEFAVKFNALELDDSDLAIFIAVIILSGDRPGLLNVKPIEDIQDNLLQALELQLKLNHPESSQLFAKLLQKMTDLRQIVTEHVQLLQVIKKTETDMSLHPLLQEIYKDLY

- IC50: 19 µM
Compound: C=C(C)C(=O)O[C@H]1CC2=C[C@H](C/C=C\[C@H]3OC(=O)C(=C)[C@H]13)OC2=O [19a]
